From patent EP1200395B1, “UREA DERIVATIVES AS INHIBITORS OF CCR-3 RECEPTOR” (KIRIN BEER KABUSHIKI KAISHA, priority 1999, dated 2001)

Target: T1, CCR-3 (Homo sapiens, UniProt P51677)
T1 sequence (P51677 1-355): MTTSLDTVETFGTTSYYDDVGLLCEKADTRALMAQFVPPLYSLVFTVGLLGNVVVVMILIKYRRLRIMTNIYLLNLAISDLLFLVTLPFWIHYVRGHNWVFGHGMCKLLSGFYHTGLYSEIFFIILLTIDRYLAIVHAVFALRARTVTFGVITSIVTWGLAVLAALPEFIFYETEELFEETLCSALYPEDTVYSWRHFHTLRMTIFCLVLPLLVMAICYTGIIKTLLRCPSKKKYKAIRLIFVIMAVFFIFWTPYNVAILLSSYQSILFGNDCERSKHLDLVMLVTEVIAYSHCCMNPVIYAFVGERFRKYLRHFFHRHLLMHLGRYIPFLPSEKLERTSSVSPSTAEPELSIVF
Test: Eotaxin-induced chemotaxis of CCR-3 transfectant cells (CCR3/U937)
Format: cell-based
Set-up: expressed in transfected cells; host or cells: U937
Details: eotaxin 1 x 10^-9 M; for inhibition at 10 µM: U-937; for inhibition at 10 µM / Chemotaxis Assay 10 µM (inhibition %): 10 µM test compound; for Chemotaxis Assay 0.1 µg/ml (inhibition %): test compound 0.1 µg/ml, CCR3/U937 transfectants, 37 °C, 1 hour

Work on O=C(O)CCCN(CCCCCNC(=O)Nc1ccc(Br)cc1)C1CCCc2ccccc21 (stereo not drawn) [Compound 63, 4-[[5-(4-Bromophenylureido)pentyl](1,2,3,4-tetrahydro-1-naphthyl)-amino]butanoic acid] yielded an inhibition at 10 µM (CCR3/U937 cells (Table 3a)) of 100%.
For CC[N+](CCCNC(=O)Nc1ccc(Cl)c(Cl)c1)(CCOCCOC)CCc1ccccc1.[I-] (stereo not drawn) [compound 359], the “Chemotaxis Assay 0.1 µg/ml (inhibition %)” value was 49%.
For COc1cccc(NC(=O)NCCCN(CCCC(=O)O)C2CCCc3ccccc32)c1 (stereo not drawn) [Compound 261], the “Chemotaxis Assay 10 µM (inhibition %)” value (CCR3/U937 cells (Table 3a)) was 100%.
For COC(=O)CCCN(CCCNC(=O)Nc1ccc(Br)cc1)C(C)(C)Cc1ccccc1 [Compound 206], the “Chemotaxis Assay 10 µM (inhibition %)” value (CCR3/U937 cells (Table 3a)) was 64%.
O=C(O)CCCN(CCCNC(=O)Nc1ccc(Br)cc1)Cc1ccc(C(F)(F)F)cc1 [Compound 71] was tested, and the “Chemotaxis Assay 10 µM (inhibition %)” value (CCR3/U937 cells (Table 3a)) was 64%.
CC[N+](CCCNC(=O)Nc1ccccc1)(CCc1ccc(Cl)cc1)Cc1cccc(C(=O)OC)c1.[I-] (stereo not drawn) [compound 332] was tested, and the “Chemotaxis Assay 10 µM (inhibition %)” value (CCR3/U937 cells (Table 3c)) was 100%.
For COc1ccc([C@@H](C)N(CCCNC(=O)Nc2ccc(Br)cc2)CCCC(=O)O)cc1 [Compound 227, 4-[[3-(4-Bromophenylureido)propyl][(1R)-1-(4-methoxyphenyl)ethyl]amino]butanoic acid], the inhibition at 10 µM (CCR3/U937 cells (Table 3a)) was 100%.
For O=C(O)CCCN(CCCNC(=O)Nc1ccc(-c2ccccc2)cc1)C1CCCc2ccccc21 (stereo not drawn) [Compound 277], the “Chemotaxis Assay 10 µM (inhibition %)” value (CCR3/U937 cells (Table 3a)) was 76%.
CCN(CCCNC(=O)Nc1ccc(Cl)cc1)CCc1ccc(Cl)cc1 [Compound 6] was tested, and the inhibition at 10 µM (CCR3/U937 cells (Table 3a)) was 100%.
In the case of COC(=O)CCCN(CCCNC(=O)Nc1ccc(Cl)c(Cl)c1)C1CCCc2ccccc21 (stereo not drawn) [Compound 35, Methyl 4-[[3-(3,4-dichlorophenylureido)propyl](1,2,3,4-tetrahydro-1-naphthyl)amino]burylate], the “Chemotaxis Assay 10 µM (inhibition %)” value (CCR3/U937 cells (Table 3a)) is reported as 100%.
For CCN(CCCNC(=O)Nc1ccc([N+](=O)[O-])cc1)CCc1ccc(Cl)cc1 [Compound 2, N-(4-Nitrophenylcarbamoyl)-N'-[2-(4-chlorophenyl)ethyl]-N'-ethyl-1,3-diaminopropane], the inhibition at 10 µM (CCR3/U937 cells (Table 3a)) was 100%.
In the case of O=C(NCCCN(CCc1ccc(Cl)cc1)Cc1ccc(Cl)cc1)Nc1ccccc1 [Compound 17], the inhibition at 10 µM (CCR3/U937 cells (Table 3a)) is reported as 51%.
With CC[N+](CCF)(CCCNC(=O)Nc1ccc(OC)cc1)CCc1ccc(Cl)cc1Cl.[I-] (stereo not drawn) [compound 452] the “Chemotaxis Assay 0.1 µg/ml (inhibition %)” value was 59%.
CCOC(=O)CCCN(CCCNC(=O)Nc1ccc(Br)cc1)C1CCCc2ccccc21 (stereo not drawn) [Compound 184, Ethyl 4-[[3-(4-bromophenylureido)propyl](1,2,3,4-tetrahydro-1-naphthyl)amino]burylate] was tested, and the “Chemotaxis Assay 10 µM (inhibition %)” value (CCR3/U937 cells (Table 3a)) was 100%.
In the case of CC[N+](CCCNC(=O)Nc1ccccc1)(CCc1ccc(Cl)cc1Cl)Cc1ccccc1.[I-] (stereo not drawn) [compound 327], the “Chemotaxis Assay 10 µM (inhibition %)” value (CCR3/U937 cells (Table 3c)) is reported as 100%.
With CC[N+](CCCNC(=O)Nc1ccccc1)(CCc1ccc(Cl)cc1)Cc1ccccc1-c1ccccc1.[I-] (stereo not drawn) [compound 341] the “Chemotaxis Assay 10 µM (inhibition %)” value (CCR3/U937 cells (Table 3c)) was 100%.
In the case of O=C(O)CCCN(CCCNC(=O)Nc1cccc2ccccc12)C1CCCc2ccccc21 (stereo not drawn) [Compound 90], the “Chemotaxis Assay 10 µM (inhibition %)” value (CCR3/U937 cells (Table 3a)) is reported as 100%.
With N#Cc1ccc(CN(CCCNC(=O)Nc2ccccc2)CCc2ccc(Cl)cc2)cc1 [Compound 16] the “Chemotaxis Assay 10 µM (inhibition %)” value (CCR3/U937 cells (Table 3a)) was 63%.
CC[N+](CC)(CCCCCNC(=O)Nc1ccccc1)CCc1ccc(Cl)cc1.[I-] [Compound 323, [5-(Phenylureido)pentyl][2-(4-chlorophenyl)ethyl]diethylammanium iodide] was tested, and the “Chemotaxis Assay 10 µM (inhibition %)” value (CCR3/U937 cells (Table 3c)) was 100%.
With CC[N+](CCCNC(=O)Nc1ccc(C(F)(F)F)cc1)(CCOCCOC)CCc1cccc(F)c1.[I-] (stereo not drawn) [compound 389] the “Chemotaxis Assay 0.1 µg/ml (inhibition %)” value was 65%.
O=C(NCCCN(CCCc1nnnn1C(c1ccccc1)(c1ccccc1)c1ccccc1)C1CCCc2ccccc21)Nc1ccc(Br)cc1 (stereo not drawn) [Compound 217, 3-[[3-(4-bromophenylureido)propyl](1,2,3,4-tetrahydro-1-naphthyl)amino]-1-[1-(triphenylmethyl)tetrazol-5-yl]propane] showed an inhibition at 10 µM (CCR3/U937 cells (Table 3a)) of 87%.
CC[N+](CCCNC(=O)Nc1ccccc1)(CCc1ccc(Cl)cc1)CC1CCC1.[I-] (stereo not drawn) [compound 417] was tested, and the “Chemotaxis Assay 0.1 µg/ml (inhibition %)” value was 59%.
CS(=O)(=O)NC(=O)CCCN(CCCNC(=O)Nc1ccc(Br)cc1)C1CCCc2ccccc21 (stereo not drawn) [Compound 210] was tested, and the “Chemotaxis Assay 10 µM (inhibition %)” value (CCR3/U937 cells (Table 3a)) was 100%.
In the case of CC[N+](CCF)(CCCNC(=O)Nc1ccc(Br)cc1)CCc1cccc(F)c1.[I-] (stereo not drawn) [compound 385], the “Chemotaxis Assay 0.1 µg/ml (inhibition %)” value is reported as 68%.
For CCN(CCCNC(=O)Nc1ccccc1)C1CCCc2ccccc21 (stereo not drawn) [Compound 192], the “Chemotaxis Assay 10 µM (inhibition %)” value (CCR3/U937 cells (Table 3a)) was 100%.
COC(=O)CCCN(CCCNC(=O)Nc1ccc(F)cc1)C1CCCc2ccccc21 (stereo not drawn) [Compound 187] was tested, and the “Chemotaxis Assay 10 µM (inhibition %)” value (CCR3/U937 cells (Table 3a)) was 100%.
Work on CC(c1ccc(F)cc1)N(CCCNC(=O)Nc1ccc(Br)cc1)CCCC(=O)O (stereo not drawn) [Compound 269, 4-[[3-(4-Bromophenylureido)propyl][1-(4-fluorophenyl)ethyl]amino]butanoic acid] yielded an inhibition at 10 µM (CCR3/U937 cells (Table 3a)) of 100%.
For CC[N+](CCCNC(=O)Nc1ccc(Br)cc1)(CCc1ccc(Cl)c(Cl)c1)CC1CCC1.[I-] (stereo not drawn) [compound 377], the “Chemotaxis Assay 0.1 µg/ml (inhibition %)” value was 46%.
With CC[N+](CCCNC(=O)Nc1ccccc1)(CCc1cccc(Cl)c1)CCC(C)C.[I-] (stereo not drawn) [compound 407] the “Chemotaxis Assay 0.1 µg/ml (inhibition %)” value was 52%.
N#Cc1cccc(NC(=O)NCCCN(CCCC(=O)O)C2CCCc3ccccc32)c1 (stereo not drawn) [Compound 260] was tested, and the “Chemotaxis Assay 10 µM (inhibition %)” value (CCR3/U937 cells (Table 3a)) was 100%.
With CCOC(=O)CCCCCN(CCCNC(=O)Nc1ccccc1)CCc1ccc(Cl)cc1 [Compound 242] the “Chemotaxis Assay 10 µM (inhibition %)” value (CCR3/U937 cells (Table 3a)) was 73%.
With CC[N+](CCCNC(=O)Nc1ccccc1)(CCc1ccc(Cl)cc1)Cc1cccc([N+](=O)[O-])c1.[I-] (stereo not drawn) [compound 338] the “Chemotaxis Assay 10 µM (inhibition %)” value (CCR3/U937 cells (Table 3c)) was 100%.
For C=C(C)C[N+](CC)(CCCNC(=O)Nc1ccccc1)CCc1ccc(Cl)cc1Cl.[I-] (stereo not drawn) [compound 424], the “Chemotaxis Assay 0.1 µg/ml (inhibition %)” value was 95%.
For CC[N+](CCCNC(=O)Nc1ccccc1)(CCc1ccc(Cl)cc1)CC1CCCCC1.[I-] (stereo not drawn) [compound 319], the “Chemotaxis Assay 10 µM (inhibition %)” value (CCR3/U937 cells (Table 3c)) was 100%.
With CC[N+](CCCNC(=O)Nc1ccc(C(F)(F)F)cc1)(CCOCCOC)CCc1ccc(Cl)cc1Cl.[I-] (stereo not drawn) [compound 388] the “Chemotaxis Assay 0.1 µg/ml (inhibition %)” value was 56%.
CSc1ccc(NC(=O)NCCCN(CCCC(=O)O)C2CCCc3ccccc32)cc1 (stereo not drawn) [Compound 264] was tested, and the “Chemotaxis Assay 10 µM (inhibition %)” value (CCR3/U937 cells (Table 3a)) was 100%.
With CCOC(=O)c1ccc(CN(CCCNC(=O)Nc2ccccc2)CCc2ccc(Cl)cc2)o1 [Compound 22] the inhibition at 10 µM (CCR3/U937 cells (Table 3a)) was 25%.
For COC(=O)CCCN(CCCNC(=O)Nc1ccccc1Br)C1CCCc2ccccc21 (stereo not drawn) [Compound 189], the “Chemotaxis Assay 10 µM (inhibition %)” value (CCR3/U937 cells (Table 3a)) was 94%.
CC[N+](CCCNC(=O)Nc1ccccc1)(CCc1ccc(Cl)cc1)Cc1ccc(OCc2ccccc2)cc1.[I-] (stereo not drawn) [compound 334] was tested, and the “Chemotaxis Assay 10 µM (inhibition %)” value (CCR3/U937 cells (Table 3c)) was 100%.
